# Laboratory results as given in patent publication US20200009173A1, “TRIAZOLE-CONTAINING MACROLIDES AND OPHTHALMIC USES THEREFOR” (Tetard, Inc., priority 2017, published 2020).
# Experiments:
# [1] = tested on: Moraxella catarrhalis; experiment: MIC, Moraxella catarrhalis; assay type: cell-based; details: N = 21
# [2] = tested on: Mycobacterium avium; experiment: MIC, Mycobacterium avium; assay type: cell-based; details: N = 30
# [3] = tested on: Streptococcus pyogenes (a); experiment: MIC, Streptococcus pyogenes (a); assay type: cell-based; details: N = 407
# [4] = tested on: Streptococci (Groups C, F, G); experiment: MIC, Streptococci (Groups C, F, G); assay type: cell-based; details: N = 185
# [5] = tested on: pathogenic bacteria; assay type: cell-based
# [6] = MIC in the presence of serum; assay type: cell-based; details: 10% serum
# [7] = speed of uptake and ultimate tissue concentration
smiles,measurement,setting,value
"CC[C@H]1OC(=O)[C@@](C)(F)C(=O)[C@H](C)[C@@H](O[C@@H]2O[C@H](C)C[C@H](N(C)C)[C@H]2O)[C@](C)(OC)C[C@@H](C)C(=O)[C@H](C)[C@H]2N(CCCCn3cc(-c4cccc(N)c4)nn3)C(=O)O[C@]12C [CEM-101, solithromycin]",MIC50,[1]; Moraxella catarrhalis,0.12 µg/mL
same,MIC90,[1]; Moraxella catarrhalis,0.12 µg/mL
same,MIC Range,[1],≤0.008 to 0.5 µg/mL
same,MIC50,[2]; Mycobacterium avium,1 µg/mL
same,MIC90,[2]; Mycobacterium avium,1 µg/mL
same,MIC Range,[2],1 µg/mL
same,MIC Range,[3],≤0.03-0.5 ^ μg/mL
same,MIC50,[3]; Streptococcus pyogenes,≤ 0.03 µg/mL
same,MIC90,[3]; Streptococcus pyogenes,≤ 0.03 µg/mL
same,MIC50,[4],≤ 0.03 µg/mL
same,MIC90,[4],≤ 0.03 µg/mL
same,MIC Range,[4],≤0.03-0.25^ μg/mL
same,activity against AZI resistant strains,[5],active against all AZI resistant strains tested
same,activity at acidic pH relative to AZI,"[5]; acidic pH, including in L. monocytogenes and S. aureus",100-200 fold
same,activity relative to conventional macrolides,[5]; greater activity than conventional macrolides,10 fold
same,intracellular activity relative to AZI,[5]; intracellular,10 fold
same,activity against phagocytized L. monocytogenes and L. pneumophila relative to conventional macrolides,[5]; phagocytized bacteria,50-100 fold
same,change in MIC in the presence of serum,[6],2 fold
same,tissue distribution relative to AZI,[7],10 fold
